Experimental data as given in ChEMBL document CHEMBL4610064, “DNA-Encoded Library Screening as Core Platform Technology in Drug Discovery: Its Synthetic Method Development and Applications in DEL Synthesis” (J Med Chem, 2020).
Converted amounts (≈) assume the structure as drawn.

Assays:
[1] = Aqueous solubility of the compound; assay type: physicochemical; conditions: water
[2] = target: T1, Neuromedin-K receptor (Homo sapiens) (UniProt P29371); assay: Antagonist activity at NK3 (unknown origin)
T1 sequence (whole entry): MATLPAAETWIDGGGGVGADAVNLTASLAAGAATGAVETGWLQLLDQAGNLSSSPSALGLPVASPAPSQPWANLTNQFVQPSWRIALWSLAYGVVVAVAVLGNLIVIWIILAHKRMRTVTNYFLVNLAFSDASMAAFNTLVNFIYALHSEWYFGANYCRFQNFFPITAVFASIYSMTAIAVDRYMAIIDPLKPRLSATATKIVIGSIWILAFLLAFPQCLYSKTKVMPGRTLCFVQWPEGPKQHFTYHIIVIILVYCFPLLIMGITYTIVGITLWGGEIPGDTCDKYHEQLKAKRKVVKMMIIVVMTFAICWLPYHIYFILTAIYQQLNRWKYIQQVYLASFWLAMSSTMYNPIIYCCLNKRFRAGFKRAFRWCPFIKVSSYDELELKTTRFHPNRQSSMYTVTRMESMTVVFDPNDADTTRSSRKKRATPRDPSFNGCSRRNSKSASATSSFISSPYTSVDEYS

[3] = target: Substance-P receptor (Homo sapiens) (UniProt P25103); assay: Antagonist activity at NK1 (unknown origin)
Sequence of Substance-P receptor (Homo sapiens) (P25103 whole entry): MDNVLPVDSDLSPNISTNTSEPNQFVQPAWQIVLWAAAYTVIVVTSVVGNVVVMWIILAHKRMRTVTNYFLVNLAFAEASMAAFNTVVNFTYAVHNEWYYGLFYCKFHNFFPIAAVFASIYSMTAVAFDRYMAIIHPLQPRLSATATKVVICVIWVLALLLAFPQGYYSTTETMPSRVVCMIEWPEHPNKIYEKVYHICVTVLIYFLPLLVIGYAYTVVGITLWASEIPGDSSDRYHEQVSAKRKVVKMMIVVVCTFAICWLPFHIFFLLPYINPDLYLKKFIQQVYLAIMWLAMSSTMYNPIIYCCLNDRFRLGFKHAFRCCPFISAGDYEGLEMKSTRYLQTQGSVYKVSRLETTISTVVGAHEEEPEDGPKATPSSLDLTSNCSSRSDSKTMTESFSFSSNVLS

[4] = target: T2, Substance-K receptor (Homo sapiens) (UniProt P21452); assay: Antagonist activity at NK2 (unknown origin)
T2 sequence (whole entry): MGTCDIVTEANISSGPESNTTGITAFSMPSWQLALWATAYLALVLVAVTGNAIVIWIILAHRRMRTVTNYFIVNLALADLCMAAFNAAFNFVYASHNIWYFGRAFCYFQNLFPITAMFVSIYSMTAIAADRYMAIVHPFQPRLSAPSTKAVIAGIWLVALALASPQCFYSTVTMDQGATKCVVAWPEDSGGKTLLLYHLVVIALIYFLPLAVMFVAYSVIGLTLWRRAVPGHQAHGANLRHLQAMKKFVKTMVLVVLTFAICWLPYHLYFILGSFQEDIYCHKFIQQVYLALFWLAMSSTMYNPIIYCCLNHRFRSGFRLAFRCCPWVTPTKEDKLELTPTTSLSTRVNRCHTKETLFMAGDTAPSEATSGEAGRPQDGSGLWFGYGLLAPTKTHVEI

Row | fKi [2] | fKi [3] | fKi [4] | SMILES | solubility [1]
1 | – | – | – | O=C(CN1C(=O)C2(CCN(C(=O)c3ccc4[nH]ncc4n3)CC2)c2c(Br)cccc21)NCC(F)(F)F | 103 µg/mL (≈ 182 µM)
2 | 1.2 nM | > 1000 nM | > 1000 nM | CCn1c(-c2ccccc2-c2ccc(C)cc2C)nc2cc(C(=O)NC)ccc21 | –
3 | – | – | – | CNC(=O)CN1CN(c2ccccc2)C2(CCN(C(=O)c3ccc4[nH]ncc4c3)CC2)C1=O | 1.4 µg/mL (≈ 3.14 µM)
4 | 1.2 nM | > 1000 nM | > 1000 nM | Cn1c(-c2c[nH]c3cc(C#N)ccc23)nc2cc(C(=O)N3CCOC(c4ccccc4)C3CO)ccc21 (stereo not drawn) | –
